According to patent US6737383B1, “Herbicidal oxadiazolidines” (priority 1999, dated 2004):

Tests used:
bedstraw = assay: Test B pre/postemergence bedstraw; type: in vivo, Galium aparine
Summary of the method: (§1)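 Test chemicals in a non-phytotoxic solvent mixture with surfactant were sprayed preemergence onto planted seeds and postemergence onto plants 2 to 18 cm tall (1- to 4-leaf stage). After twelve to sixteen days in a greenhouse, injury was visually rated against untreated controls from 0 (no effect) to 10 (complete control).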

blackgrass = assay: Test B pre/postemergence blackgrass; type: in vivo, Alopecurus myosuroides
Summary of the method: as §1

surinam grass = assay: Test B pre/postemergence surinam grass; type: in vivo, Brachiaria decumbens
Summary of the method: as §1

corn = assay: Test B pre/postemergence corn; type: in vivo, Zea mays
Summary of the method: as §1

crabgrass = assay: Test B pre/postemergence crabgrass; type: in vivo, Digitaria sanguinalis
Summary of the method: as §1

giant foxtail = assay: Test B pre/postemergence giant foxtail; type: in vivo, Setaria faberii
Summary of the method: as §1

morningglory = assay: Test B pre/postemergence morningglory; type: in vivo, Ipomoea hederacea
Summary of the method: as §1

pigweed = assay: Test B pre/postemergence pigweed; type: in vivo, Amaranthus retroflexus
Summary of the method: as §1

rape = assay: Test B pre/postemergence rape; type: in vivo, Brassica napus
Summary of the method: as §1

soybean = assay: Test B pre/postemergence soybean; type: in vivo, Glycine max
Summary of the method: as §1

velvetleaf = assay: Test B pre/postemergence velvetleaf; type: in vivo, Abutilon theophrasti
Summary of the method: as §1

wheat = assay: Test B pre/postemergence wheat; type: in vivo, Triticum aestivum
Summary of the method: as §1

wild oat = assay: Test B pre/postemergence wild oat; type: in vivo, Avena fatua
Summary of the method: as §1

purple nutsedge = assay: Test B pre/postemergence purple nutsedge; type: in vivo, Cyperus rotundus
Summary of the method: as §1

rice = assay: Test B flood test rice; type: in vivo, Oryza sativa
Summary of the method: (§2)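 Read-out is a visual response score from 0 (no effect) to 10 (complete control), assigned by comparison with untreated controls. Treatment was applied at the 2-leaf stage, and plants stayed in the greenhouse for twelve to sixteen days before scoring.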

duck salad = assay: Test B flood test duck salad; type: in vivo, Heteranthera limosa
Summary of the method: as §2

[1] = Preemergence, Rate 62 g/ha, scale of 0 to 10 where 0 is no effect and 10 is complete control
[2] = Preemergence, Rate 250 g/ha, scale of 0 to 10 where 0 is no effect and 10 is complete control
[3] = Preemergence, Rate 500 g/ha, scale of 0 to 10 where 0 is no effect and 10 is complete control
[4] = Rate 62 g/ha, Postemergence, scale 0 to 10 (0 no effect, 10 complete control)
[5] = Rate 125 g/ha, Postemergence, scale of 0 to 10 where 0 is no effect and 10 is complete control
[6] = Rate 125 g/ha, Preemergence, scale of 0 to 10 where 0 is no effect and 10 is complete control
[7] = Rate 250 g/ha, Postemergence, scale of 0 to 10 where 0 is no effect and 10 is complete control
[8] = Rate 500 g/ha, Postemergence, scale 0 to 10, 0 no effect, 10 complete control
[9] = Rate 62 g/ha, headed Pre-emergence (flood test species), scale 0 to 10 (0 no effect, 10 complete control)
[10] = Rate 125 g/ha, Pre-emergence, flood test species, scale 0 to 10 where 0 is no effect and 10 is complete control
[11] = Rate 250 g/ha, Pre-emergence, flood-test species, scale 0 to 10, 0 is no effect, 10 is complete control
[12] = Rate 500 g/ha, Pre-emergence, flood test species, scale 0 to 10 (0 no effect, 10 complete control)

COCn1c(=O)on(C(=O)N(c2ccc(F)cc2)C(C)C)c1=O [Compound 293]
Bedstraw plant response rating (bedstraw; [1]): 0 | Bedstraw plant response rating (bedstraw; [2]): 0 | Plant response rating, Bedstraw (bedstraw; [3]): 0 | Bedstraw plant response rating (bedstraw; [4]): 0 | Bedstraw plant response rating (bedstraw; [5]): 2 | Bedstraw plant response rating (bedstraw; [6]): 0 | Plant response rating, Bedstraw (bedstraw; [7]): 3 | Bedstraw plant response rating (bedstraw; [8]): 9 | Blackgrass plant response rating (blackgrass; [1]): 7 | Blackgrass plant response rating (blackgrass; [2]): 9 | Plant response rating, Blackgrass (blackgrass; [3]): 9 | Blackgrass plant response rating (blackgrass; [4]): 5 | Blackgrass plant response rating (blackgrass; [5]): 9 | Blackgrass plant response rating (blackgrass; [6]): 7 | Plant response rating, Blackgrass (blackgrass; [7]): 9 | Blackgrass plant response rating (blackgrass; [8]): 9 | B. signalgrass plant response rating (surinam grass; [1]): 2 | B. signalgrass plant response rating (surinam grass; [2]): 7 | Plant response rating, B. signalgrass (surinam grass; [3]): 9 | B. signalgrass plant response rating (surinam grass; [4]): 0 | B. signalgrass plant response rating (surinam grass; [5]): 0 | B. signalgrass plant response rating (surinam grass; [6]): 3 | Plant response rating, B. signalgrass (surinam grass; [7]): 7 | B. signalgrass plant response rating (surinam grass; [8]): 7 | Corn plant response rating (corn; [1]): 0 | Corn plant response rating (corn; [2]): 9 | Corn plant response rating (corn; [4]): 0 | Corn plant response rating (corn; [5]): 0 | Corn plant response rating (corn; [6]): 0 | Plant response rating, Corn (corn; [7]): 0 | Corn plant response rating (corn; [8]): 3 | Crabgrass plant response rating (crabgrass; [1]): 1 | Crabgrass plant response rating (crabgrass; [2]): 8 | Plant response rating, Crabgrass (crabgrass; [3]): 8 | Crabgrass plant response rating (crabgrass; [4]): 6 | Crabgrass plant response rating (crabgrass; [5]): 8 | Crabgrass plant response rating (crabgrass; [6]): 3 | Plant response rating, Crabgrass (crabgrass; [7]): 9 | Giant foxtail plant response rating (giant foxtail; [1]): 9 | Giant foxtail plant response rating (giant foxtail; [2]): 9 | Plant response rating, Giant foxtail (giant foxtail; [3]): 10 | Giant foxtail plant response rating (giant foxtail; [4]): 5 | Giant foxtail plant response rating (giant foxtail; [5]): 8 | Giant foxtail plant response rating (giant foxtail; [6]): 9 | Plant response rating, Giant foxtail (giant foxtail; [7]): 8 | Morningglory plant response rating (morningglory; [1]): 0 | Morningglory plant response rating (morningglory; [2]): 0 | Plant response rating, Morningglory (morningglory; [3]): 4 | Morningglory plant response rating (morningglory; [4]): 1 | Morningglory plant response rating (morningglory; [5]): 5 | Morningglory plant response rating (morningglory; [6]): 0 | Plant response rating, Morningglory (morningglory; [7]): 5 | Redroot pigweed plant response rating (pigweed; [1]): 6 | Redroot pigweed plant response rating (pigweed; [2]): 10 | Plant response rating, Redroot pigweed (pigweed; [3]): 10 | Redroot pigweed plant response rating (pigweed; [4]): 0 | Redroot pigweed plant response rating (pigweed; [5]): 2 | Redroot pigweed plant response rating (pigweed; [6]): 8 | Plant response rating, Redroot pigweed (pigweed; [7]): 2 | Rape plant response rating (rape; [1]): 0 | Rape plant response rating (rape; [2]): 8 | Plant response rating, Rape (rape; [3]): 10 | Rape plant response rating (rape; [4]): 0 | Rape plant response rating (rape; [5]): 0 | Rape plant response rating (rape; [6]): 6 | Plant response rating, Rape (rape; [7]): 0 | Soybean plant response rating (soybean; [1]): 0 | Soybean plant response rating (soybean; [2]): 2 | Plant response rating, Soybean (soybean; [3]): 2 | Soybean plant response rating (soybean; [4]): 1 | Soybean plant response rating (soybean; [5]): 2 | Soybean plant response rating (soybean; [6]): 0 | Plant response rating, Soybean (soybean; [7]): 2 | Velvetleaf plant response rating (velvetleaf; [1]): 4 | Velvetleaf plant response rating (velvetleaf; [2]): 7 | Plant response rating, Velvetleaf (velvetleaf; [3]): 8 | Velvetleaf plant response rating (velvetleaf; [4]): 0 | Velvetleaf plant response rating (velvetleaf; [5]): 2 | Velvetleaf plant response rating (velvetleaf; [6]): 4 | Plant response rating, Velvetleaf (velvetleaf; [7]): 2 | Wheat plant response rating (wheat; [1]): 2 | Wheat plant response rating (wheat; [2]): 8 | Plant response rating, Wheat (wheat; [3]): 9 | Wheat plant response rating (wheat; [4]): 2 | Wheat plant response rating (wheat; [5]): 6 | Wheat plant response rating (wheat; [6]): 7 | Plant response rating, Wheat (wheat; [7]): 7 | Wild oats plant response rating (wild oat; [1]): 1 | Wild oats plant response rating (wild oat; [2]): 8 | Plant response rating, Wild oats (wild oat; [3]): 9 | Wild oats plant response rating (wild oat; [4]): 0 | Wild oats plant response rating (wild oat; [5]): 0 | Plant response rating, Wild oats (wild oat; [7]): 3 | Nutsedge plant response rating (purple nutsedge; [1]): 0 | Nutsedge plant response rating (purple nutsedge; [2]): 7 | Nutsedge plant response rating (purple nutsedge; [4]): 0 | Nutsedge plant response rating (purple nutsedge; [5]): 3 | Nutsedge plant response rating (purple nutsedge; [6]): 0 | Plant response rating, Nutsedge (purple nutsedge; [7]): 8 | Rice plant response rating (rice; [9]): 0 | Rice plant response rating (rice; [10]): 0 | Rice plant response rating (rice; [11]): 3 | Rice plant response rating (rice; [12]): 5 | Ducksalad plant response rating (duck salad; [9]): 0 | Ducksalad plant response rating (duck salad; [10]): 0 | Ducksalad plant response rating (duck salad; [11]): 0 | Ducksalad plant response rating (duck salad; [12]): 0
